Results published in patent publication US10363261B2, “Enolase inhibitors and methods of treatment therewith” (Board of Regents, The University of Texas System, priority 2015, dated 2019).

How the values were obtained:
enolase 2 = target: T1, enolase 2 (Homo sapiens, UniProt P09104); assay: Thermal shift assay in intact glioma cells overexpressing ENO2 (D423 ENO2); assay type: cell-based; settings: 100 μM inhibitor
T1 construct: expressed in transfected cells; host or cells: D423 (D423-MG) human glioma cells, clone pCMV ENO2 1x
Protocol: Thermal shift assays were conducted as described in Martinez Molina, et al. (2013), on lysates of D423 cell line overexpressing ENO1 and ENO2, on recombinant human ENO1 and ENO2 purified from E. coli as well as intact D423 ENO2 overexpressing glioma cells. […] Lysates were diluted (1:100) in Enolase enzymatic activity buffer as mentioned above. Diluted lysates were treated with SF2312, PhAH or vehicle and heated on a C1000 Thermal cycler (Bio-rad) with a linear temperature gradient (50 to 82.5° C. in 2.5° C. increments) for 3 minutes (FIG. 24). The lysates were then centrifuged at 20,000 g for 10 minutes. Supernatant and pellet were then separated and NuPage LDS Sample buffer (Life Technologies # NP0007) was added. Western Blots were performed as described previously (Muller, et al., 2012). The following antibodies were used: ENO1 (Abcam # ab155102), ENO2 (Dako # M087301-2), Vinculin (EMD Millipore #05-386), pan-ENO (Santa Cruz Biotechnology, sc-7455) and TPI (Proteintech #10713-1-AP). Recombinant human ENO2: The same procedure was carried out on purified recombinant ENO2 from E. coli, utilizing the purified protein generated for the X-ray crystallography studies. […]

D423 overexpressing ENO2 = assay: Sensitivity of D423 cells with re-expression of ENO2; assay type: cell-based, human
Protocol: Total cell number was quantified by Hoechst 33342 (Cat# H3570; Invitrogen). Apoptotic cells were counted by staining with propidium iodide. Apoptotic cells become permeable to propidium iodide while live cells are not stained. On the day of apoptosis survey, old media was removed and each well was filled to 100 μl with fresh media. Hoechst and propidium iodide were mixed in 1:100 PBS and 10 μl of the mixture was added in each well gently without touching the cells for a final dilution of 1:1000 from stock. Plates were then incubated at 37° C. for 2 hours. Image capture and quantification was done by High Content Screening System—Operetta (Perkin Elmer).
Cell proliferation of glioma cell lines was assayed either through crystal violet staining or by live-cell confluence measurements with the IncuCyte (Essen BioScience). […] Dye extraction was performed using 10% acetic acid solution, and absorbance was read at 595 nm. Apoptotic cells were counted by staining with YO-PRO®-1 Iodide (491/509, Life Technologies, Y3603). […] Total cell number was quantified by Hoechst 33342 (Cat# H3570 Invitrogen). […] Image capture and quantification was done by High Content Screening System—Operetta (Perkin Elmer). ATP content was measured with the luciferase/luciferin CellTiter-Glo® assay. […]

[1] = Hematocrit / hemolytic anemia after IV administration
Source text: Erythrocytes are sensitive to disruptions in the glycolytic cycle as glycolysis is the cell's only source of energy in the form of ATP.

[2] = system: conversion of 13C-glucose to 13C-lactate in D423 ENO1-deleted glioma cells; assay: 13C-NMR tracing of uniformly labeled 13C-glucose to 13C-lactate; settings: 48 hours, 10 mM 13C-uniformly labeled glucose
Protocol: Glucose labeled with heavy, non-radioactive, ^13C at carbon C-1 and ^13C at all carbon atoms were purchased from Cambridge Isotopes (CLM-420-1 and CLM-1396, respectively). Glucose free DMEM media was supplemented with 10 mM ^13C-1 or ^13C-all labeled Glucose. NMR metabolic tracing was performed by substituting conventional DMEM medium with glucose free DMEM medium, to which ^13C-1 glucose (Cambridge Isotopes) was supplemented at 10 mM. […] After 4 days, conditioned media was extracted with 80% methanol at −80° C., lyophilized and resuspended in D2O. Proton-decoupled ^13C NMR spectra were acquired using a 500 MHZ Bruker instrument in the M. D. Anderson NMR core facility.

T1 sequence (P09104 whole entry): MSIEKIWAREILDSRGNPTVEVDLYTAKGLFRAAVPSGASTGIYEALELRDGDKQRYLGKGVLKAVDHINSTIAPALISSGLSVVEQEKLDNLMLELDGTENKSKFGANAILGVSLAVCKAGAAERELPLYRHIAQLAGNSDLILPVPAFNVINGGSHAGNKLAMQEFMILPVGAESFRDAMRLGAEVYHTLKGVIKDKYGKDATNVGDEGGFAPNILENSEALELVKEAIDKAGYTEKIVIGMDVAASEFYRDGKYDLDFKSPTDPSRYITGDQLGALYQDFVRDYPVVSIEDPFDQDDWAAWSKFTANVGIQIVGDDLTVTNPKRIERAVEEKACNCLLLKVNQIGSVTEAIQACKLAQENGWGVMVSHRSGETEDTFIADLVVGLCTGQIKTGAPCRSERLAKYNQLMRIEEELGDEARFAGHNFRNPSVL

## O=C1C(P(=O)(O)O)CC(O)N1O (racemic) [SF2312, 3-dihydroxyphosphoryl-1,5-dihydroxy-2-pyrrolidone]
Enolase 2
  shift of the thermal melting curve of ENO2 in intact glioma cells: ~15 °C
D423 overexpressing ENO2
  residual sensitivity to SF2312 relative to that of PhAH after re-expression of ENO2: at least 4 times
[1]; 100 mg/kg IV for longer than a week
  hematocrit after treatment (drop from 45%): 29%
[1]; as low as
  dose at which mild hemolytic anemia can be observed: 50 mg/kg
[2]
  concentration sufficient to decrease the ratio of 13C Lactate/13C glucose by 70%: 6.25 µM
